Earlier results as cited in patent US4913906A, “Novel controlled release dosage form of valproic acid” (priority 1985, dated 1990).

How the values were obtained:
[1] = all currently used antiepileptics

SMILES | elimination half-life compared with other antiepileptics [1] | fluctuations in the drug plasma level (chronic valpromide treatment) | absorption rate (compared with valproic acid) | biotransformation to VPA (in vivo)
CCCC(CCC)C(=O)O [VPA, valproic acid] | shortest elimination half-life of all currently used antiepileptics | – | – | –
CCCC(CCC)C(N)=O [Valpromide, valpromide] | – | fewer fluctuations in the drug plasma level | slower absorption rate than valproic acid | biotransform to VPA before reaching the systemic circulation
